The record followed here is ChEMBL document CHEMBL1201862, “PubChem BioAssay data set” (2004).

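Test compounds were applied to cells in 96-well plates for 48 hours at 5 doses. GI50 = concentration required for 50% inhibition of growth.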 The source made the active and inactive calls. No stated cut-off is given here; in the data, active = GI50 up to about 1.1 µM and inactive = higher. Some results are limits rather than exact numbers.

Test systems include SW-620; SF-539; KM12; NCI-H460; NCI-H23; OVCAR-4; OVCAR-3; Malme-3M; HOP-92; SR; LOX IMVI; A498; HCC 2998; UO-31; ACHN; MOLT-4; SK-MEL-28; CCRF-CEM; MDA-MB-435; MCF7.
Assay in all cases: NCI-60 cell line screen, 48 h

Consider `CC1=NC2(C(=O)O)C3(C(=O)O)N=C(C)OC3(C(F)(F)F)C2(C(F)(F)F)O1` (stereo not drawn), for which the GI50 in the test with SW-620, with SF-539, in the test on KM12, in the test with NCI-H460, in the test with NCI-H23 and with OVCAR-4 was > 100 µM (inactive) each time. The GI50 with OVCAR-3, with Malme-3M, in the test with HOP-92, in the test on SR, with LOX IMVI and in the test with A498 was > 100 µM (inactive) in each case. Besides, the GI50 in the test on HCC 2998, in the test with UO-31, in the test with ACHN, in the test with MOLT-4, with SK-MEL-28 and in the test on CCRF-CEM was > 100 µM (inactive) each time.

Turning to `O=C1C=CC(=O)c2c1ccc1c3ccccc3n(CCCCCCCCn3c4ccccc4c4ccc5c(c43)C(=O)C=CC5=O)c21`, the GI50 with SW-620, in the test with MDA-MB-435, with SF-539, in the test on KM12, in the test on NCI-H460 and with NCI-H23 was > 100 µM (inactive) each time. In addition, the GI50 with OVCAR-4, in the test on OVCAR-3, in the test with Malme-3M, with LOX IMVI, with A498 and with HCC 2998 was > 100 µM (inactive) in each case. Besides, the GI50 in the test with ACHN is > 100 µM (inactive); in the test with MOLT-4 it was 85.7 µM (inactive); in the test with SK-MEL-28, > 100 µM (inactive); in the test with CCRF-CEM, > 100 µM (inactive); in the test on MCF7, > 100 µM (inactive).

Turning to `O=C1N/C(=N/N=C/C(O)C(O)C(O)C(O)CO)N/C1=C\c1ccco1` (stereo not drawn), the GI50 in the test with SW-620, in the test on MDA-MB-435, in the test with SF-539, in the test with KM12, in the test with NCI-H460 and in the test with NCI-H23 was > 100 µM (inactive) each time. In addition, the GI50 in the test on OVCAR-4, with OVCAR-3, in the test on Malme-3M, in the test with HOP-92, in the test on LOX IMVI and in the test with A498 was > 100 µM (inactive) each time. The GI50 in the test on ACHN is > 100 µM (inactive); in the test on MOLT-4 it was > 100 µM (inactive); in the test on SK-MEL-28, > 100 µM (inactive); with CCRF-CEM it was 48.4 µM (inactive); in the test with MCF7 it was > 100 µM (inactive).

Consider `CC(C)OP(=O)(OC(C)C)/C(=N/Nc1ccc([N+](=O)[O-])cc1)Nc1ccccc1`, for which the GI50 with SW-620 is 33 µM (inactive); in the test with SF-539, 33.9 µM (inactive); in the test on KM12, 20.8 µM (inactive); in the test on NCI-H460, 33 µM (inactive); with NCI-H23 it was 26.2 µM (inactive); in the test with OVCAR-4, 28.4 µM (inactive). In addition, the GI50 was 32.2 µM (inactive) with OVCAR-3; 19.8 µM (inactive) in the test with Malme-3M; 17.5 µM (inactive) in the test with HOP-92; 16.6 µM (inactive) with SR; 33.7 µM (inactive) in the test with LOX IMVI; > 10 µM (inactive) in the test on A498. Also, the GI50 with HCC 2998 was 49.5 µM (inactive); in the test with UO-31, 77.3 µM (inactive); in the test with ACHN, 24.8 µM (inactive); in the test on MOLT-4, 10.7 µM (inactive); with SK-MEL-28, 23.9 µM (inactive); in the test on CCRF-CEM it was 18.4 µM (inactive).

For `C=C(Br)CNC(=O)Nc1ccc(Cl)c(Cl)c1`, the GI50 is 35.4 µM (inactive) in the test on SW-620; 20.3 µM (inactive) with MDA-MB-435; 19.3 µM (inactive) in the test on SF-539; 17.3 µM (inactive) in the test on KM12; 26.5 µM (inactive) in the test with NCI-H460; 15.6 µM (inactive) in the test with NCI-H23. The GI50 with OVCAR-4 is 29.5 µM (inactive); in the test on OVCAR-3 it was 13.4 µM (inactive); in the test with Malme-3M, 20.1 µM (inactive); with HOP-92, 19.9 µM (inactive); in the test with SR, 30.9 µM (inactive); with LOX IMVI, 19.7 µM (inactive). In addition, the GI50 is 9.12 µM (inactive) in the test with A498; 18.5 µM (inactive) in the test with HCC 2998; 11.4 µM (inactive) in the test on UO-31; 17.5 µM (inactive) with ACHN; 26.2 µM (inactive) in the test with MOLT-4; 28.1 µM (inactive) in the test with SK-MEL-28. Also, in the test with CCRF-CEM, the GI50 was 19.3 µM (inactive).

On to `Cc1ccnc2nc(-c3ccc4ccccc4c3)cc(O)c12`, for which the GI50 in the test with SW-620 is 0.451 µM (active); with SF-539 it was 1.22 µM (inactive); in the test with KM12, 0.452 µM (active); with NCI-H23, 2.56 µM (inactive); in the test with OVCAR-4, 1.71 µM (inactive); with Malme-3M, 1.14 µM (inactive). Moreover, the GI50 in the test on HOP-92 was 0.592 µM (active); with SR, 0.296 µM (active); in the test on LOX IMVI, 0.818 µM (active); in the test on A498 it was 1.49 µM (inactive); in the test on HCC 2998, 1.65 µM (inactive); in the test on UO-31, 3.26 µM (inactive). Also, the GI50 in the test with ACHN was 2.96 µM (inactive); in the test on MOLT-4, 0.479 µM (active); in the test on SK-MEL-28, 1.76 µM (inactive); in the test with CCRF-CEM it was 1.04 µM (active); in the test with MCF7, 0.258 µM (active).

`CC(C)CCC[C@@H](C)[C@H]1CCC2C3CC=C4C[C@@H](Oc5c6ccccc6nc6ccccc56)CCC4C3CCC21` (stereo partly drawn): the GI50 with SW-620, in the test on MDA-MB-435, in the test with SF-539, with KM12, with NCI-H460 and with NCI-H23 was > 50 µM (inactive) in each case. For the same compound, the GI50 in the test with OVCAR-4 is > 50 µM (inactive); in the test with OVCAR-3, > 50 µM (inactive); with Malme-3M, > 50 µM (inactive); in the test on HOP-92, > 50 µM (inactive); in the test with LOX IMVI it was > 50 µM (inactive); with UO-31, 25.6 µM (inactive). For the same compound, the GI50 with ACHN, in the test with SK-MEL-28 and with CCRF-CEM was > 50 µM (inactive) throughout.

In the case of `COc1ccc(-c2csc(Cc3nc4ccccc4c(=O)n3-c3ccc(Cl)cc3)n2)cc1`, the GI50 was 58.3 µM (inactive) in the test with SW-620; 28.5 µM (inactive) in the test with MDA-MB-435; 31 µM (inactive) in the test with KM12; 33.5 µM (inactive) in the test with NCI-H460; 28.8 µM (inactive) with NCI-H23; 52.6 µM (inactive) in the test with OVCAR-4. The GI50 in the test on OVCAR-3 is 40.5 µM (inactive); in the test with Malme-3M, > 100 µM (inactive); in the test on LOX IMVI, 39.4 µM (inactive); with A498, 70.8 µM (inactive); in the test with HCC 2998 it was 29.9 µM (inactive); with UO-31, 34.6 µM (inactive). For the same compound, the GI50 is 30.9 µM (inactive) in the test with ACHN; 20 µM (inactive) in the test with MOLT-4; 27 µM (inactive) in the test on SK-MEL-28; 28.9 µM (inactive) in the test on CCRF-CEM; 32.8 µM (inactive) with MCF7.

Take `COC(=O)C1CC2c3c(c4ccccc4n3C)CC(C1=O)N2C` (stereo not drawn): the GI50 in the test with SW-620 was 34.8 µM (inactive); in the test on SF-539, 32.5 µM (inactive); with KM12, 37.8 µM (inactive); with NCI-H460, 45.3 µM (inactive); in the test with NCI-H23, 50.8 µM (inactive); with OVCAR-4, 37.3 µM (inactive). For the same compound, the GI50 in the test with OVCAR-3 is 34.8 µM (inactive); in the test on Malme-3M, 43.9 µM (inactive); with HOP-92, 74.3 µM (inactive); with SR, 27.5 µM (inactive); with LOX IMVI, 78.9 µM (inactive); in the test with A498, 28.2 µM (inactive). Moreover, the GI50 is 34.8 µM (inactive) in the test with HCC 2998; 21.4 µM (inactive) with UO-31; 35.7 µM (inactive) in the test with ACHN; 29 µM (inactive) with MOLT-4; 51.9 µM (inactive) in the test on SK-MEL-28; 34.6 µM (inactive) in the test on CCRF-CEM.

Turning to `COC(=O)[C@@H]1[C@H](O)[C@H](C)[C@H](O)[C@H](C)/C=C\C=C(\C)C(=O)Nc2c(C)c(OC(C)=O)c3c(c2O)C(=O)C(C)=C2OCOC(=C23)/C(C)=C/[C@@H](O)[C@H](O)[C@@H](C)[C@H]1OC(C)=O`, the GI50 in the test on SW-620 is 32.1 µM (inactive); in the test on KM12, 95.3 µM (inactive); in the test on NCI-H23, > 100 µM (inactive); in the test on OVCAR-4, 33.2 µM (inactive); with Malme-3M it was 34.6 µM (inactive); in the test with HOP-92 it was 80.5 µM (inactive). Also, the GI50 in the test with SR is 33 µM (inactive); with LOX IMVI, 40 µM (inactive); in the test on UO-31, 38.5 µM (inactive); with ACHN, > 100 µM (inactive); with MOLT-4 it was 26.5 µM (inactive); in the test on SK-MEL-28, 55.6 µM (inactive). In addition, the results for the GI50 in the test on CCRF-CEM and with MCF7 were 44.9 µM (inactive) and 26.2 µM (inactive), respectively.

As for `CN1CCCCC(C(O)(c2ccccc2)c2ccccc2)C1=O` (stereo not drawn), the GI50 in the test with SW-620 was 11.9 µM (inactive); in the test with SF-539 it was > 100 µM (inactive); in the test on KM12, > 100 µM (inactive); in the test with NCI-H460 it was 80 µM (inactive); with NCI-H23, > 100 µM (inactive); in the test on OVCAR-4, > 100 µM (inactive). Further, the GI50 in the test on OVCAR-3, in the test on Malme-3M, with HOP-92, with SR, with LOX IMVI and in the test with A498 was > 100 µM (inactive) throughout. Also, the GI50 in the test with HCC 2998 was > 100 µM (inactive); in the test with UO-31, > 100 µM (inactive); in the test with ACHN it was > 100 µM (inactive); in the test on MOLT-4, > 100 µM (inactive); in the test with SK-MEL-28 it was > 100 µM (inactive); in the test on CCRF-CEM it was 85.5 µM (inactive).
